Values belong to the compound of their own block, whether it stands above or below them.
What was measured:
[1] = target: T1, α-amylase from the human pancreas (Homo sapiens, UniProt P04746); assay: HPLC microfractionation with post-column pancreatic α-amylase inhibition (dyed starch); type: biochemical; settings: HPLC zone of R. acicularis leaf extract (July sample), 30 s fractions
T1 construct: α-amylase from human pancreas; purchased Lee Biosolutions, Inc. Cat. No. 120-15; host or cells: human pancreas (tissue-derived)
T1 sequence (P04746 16-511): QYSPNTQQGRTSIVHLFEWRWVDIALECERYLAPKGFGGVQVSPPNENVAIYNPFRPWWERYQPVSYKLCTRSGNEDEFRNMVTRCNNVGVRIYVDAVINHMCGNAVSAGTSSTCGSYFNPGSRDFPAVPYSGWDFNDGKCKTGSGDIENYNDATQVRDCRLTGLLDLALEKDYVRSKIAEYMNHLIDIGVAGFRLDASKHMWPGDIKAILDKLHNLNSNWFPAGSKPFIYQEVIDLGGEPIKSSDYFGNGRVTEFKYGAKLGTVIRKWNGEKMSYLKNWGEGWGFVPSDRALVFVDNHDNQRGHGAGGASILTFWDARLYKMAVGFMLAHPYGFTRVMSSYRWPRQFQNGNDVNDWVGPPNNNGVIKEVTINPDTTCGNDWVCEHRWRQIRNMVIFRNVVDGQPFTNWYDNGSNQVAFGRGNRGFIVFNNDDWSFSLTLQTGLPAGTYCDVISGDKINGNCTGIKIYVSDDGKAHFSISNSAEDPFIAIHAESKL
Description: The probe of the extract was separated by HPLC, and fractions were eluted every 30 sec, collected, dried and mixed with pancreatic α-amylase. The hydrolytic activity of amylase was studied spectrophotometrically using starch azure as a substrate.
HPLC-PDA-ESI-tQ-MS conditions (Section 3.4) were used to separate the enlarged volume of R. acicularis leaf extract (July sample; 25 μL). The eluates (60 µL) were collected every 30 s by an automated fraction collector, a Shimadzu FRC-10A, and dried under a stream of N2. The eluate residue was dissolved in 50% methanol (50 µL) and added to 50 µL of water, 2.5 mL of Remazol-Brilliant-Blue-R-dyed starch (2% suspension in phosphate buffer, pH of 6.8) and 500 μL α-amylase from the human pancreas (0.4 U/mL), incubated for 50 min (37 °C) and the absorbance was measured at 620 nm. […] The value of 100% destruction of Remazol-Brilliant-Blue-R-dyed starch (or 0% content of intact starch compound) was measured for the eluate with a retention time of 0.5–1.0 min.

[2] = target: T2, porcine pancreatic amylase (Sus scrofa, UniProt P00690); assay: Simulated gastrointestinal digestion of artificial substrate mixture, amylase activity (p-nitrophenol marker, HPLC-DAD); type: biochemical; settings: 1000 μg/mL; control = 100% of enzyme activity
T2 construct: α-amylase from porcine pancreas; purchased Sigma-Aldrich Cat. No. 6255; host or cells: porcine pancreas (tissue-derived)
T2 sequence (P00690 16-511): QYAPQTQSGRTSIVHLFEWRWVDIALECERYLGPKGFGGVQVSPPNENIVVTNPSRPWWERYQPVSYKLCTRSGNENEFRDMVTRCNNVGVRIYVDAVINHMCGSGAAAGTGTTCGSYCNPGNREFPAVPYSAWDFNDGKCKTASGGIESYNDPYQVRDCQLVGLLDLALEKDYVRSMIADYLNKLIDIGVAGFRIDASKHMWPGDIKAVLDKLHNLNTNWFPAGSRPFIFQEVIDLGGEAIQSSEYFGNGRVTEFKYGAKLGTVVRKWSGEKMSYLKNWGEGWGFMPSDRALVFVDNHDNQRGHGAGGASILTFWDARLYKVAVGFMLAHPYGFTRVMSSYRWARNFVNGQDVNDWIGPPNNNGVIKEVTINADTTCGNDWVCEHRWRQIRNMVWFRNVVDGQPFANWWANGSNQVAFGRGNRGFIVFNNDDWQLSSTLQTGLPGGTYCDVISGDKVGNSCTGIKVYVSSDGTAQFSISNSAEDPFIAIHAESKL
From the text: (§1) To study the inhibitory potential of R. acicularis extracts on the digestive enzymes, we used the standardized static, simulated gastrointestinal digestion method of Minekus et al., based on physiologically relevant conditions of digestion. In brief, the artificial substrate mixture, including ethylidene-p-nitrophenyl-α-D-maltoheptaoside (as a carbohydrate model), Nα-benzoyl-L-arginine-7-amino-4-methylcoumarin hydrochloride (as a protein model) and 4-methylumbelliferyl heptanoate (as a lipid model), was digested with extracts of R. acicularis leaves, flowers, roots and fruits (in doses of 100 μg/mL and 1000 μg/mL) by gastric and intestinal enzymatic and electrolyte mixtures (or juices). […] In a final step, concentrations of specific markers, such as p-nitrophenol, 7-amino-4-methylcoumarin and 4-methylumbelliferone, released from an artificial nutrient mixture, were analyzed by an HPLC-DAD assay. […]
(§2) For simulation, the known standardized static gastrointestinal digestion method of Minekus et al. was used with no variation. […] The supernatant was analyzed using an HPLC-DAD assay (Section 3.7) to quantify the level of markers as p-nitrophenol, 7-amino-4-methylcoumarin and 4-methylumbelliferone formed from ethylidene-p-nitrophenyl-α-D-maltoheptaoside, Nα-benzoyl-L-arginine- 7-amino-4-methylcoumarin hydrochloride and 4-methylumbelliferyl heptanoate, respectively. […]

[3] = target: T3, porcine pancreas α-amylase (Sus scrofa, UniProt P00690); assay: α-Amylase inhibitory activity, microplate spectrophotometric assay; type: biochemical; settings: mean ± S.D.; read-out: IC50 against porcine pancreas α-amylase (converted)
T3 construct: α-amylase from porcine pancreas; purchased Sigma-Aldrich Cat. No. 6255; host or cells: porcine pancreas (tissue-derived)
T3 sequence (P00690 16-511): T2 sequence (P00690 16-511)
From the text: (§3) The α-amylase-inhibiting potential of rugosin D was studied using a microplate spectrophotometric assay with three mammalian amylases, including α-amylase from porcine pancreas, α-amylase from human saliva and α-amylase from human pancreas.

[4] = target: T4, human saliva α-amylase (Homo sapiens, UniProt P0DUB6); assay: as above; type: biochemical; settings: mean ± S.D.; read-out: IC50 against human saliva α-amylase (converted)
T4 construct: α-amylase from human saliva; purchased Sigma-Aldrich Cat. No. 0521; host or cells: human saliva
T4 sequence (P0DUB6 16-511): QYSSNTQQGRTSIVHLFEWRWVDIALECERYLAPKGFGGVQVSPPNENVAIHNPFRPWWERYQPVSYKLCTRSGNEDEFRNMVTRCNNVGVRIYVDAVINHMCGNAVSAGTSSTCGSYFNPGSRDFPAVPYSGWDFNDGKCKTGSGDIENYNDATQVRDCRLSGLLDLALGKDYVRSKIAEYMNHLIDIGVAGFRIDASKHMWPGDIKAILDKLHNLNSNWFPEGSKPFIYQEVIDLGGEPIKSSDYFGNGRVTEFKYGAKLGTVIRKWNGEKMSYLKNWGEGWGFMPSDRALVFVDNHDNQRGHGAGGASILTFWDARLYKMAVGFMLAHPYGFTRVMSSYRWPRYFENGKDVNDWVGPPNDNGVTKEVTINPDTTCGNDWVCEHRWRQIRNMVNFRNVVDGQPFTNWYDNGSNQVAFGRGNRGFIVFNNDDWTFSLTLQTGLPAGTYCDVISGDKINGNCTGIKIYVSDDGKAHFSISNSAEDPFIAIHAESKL
From the text: as §3

[5] = target: T5, human pancreas α-amylase (Homo sapiens, UniProt P04746); assay: as above; type: biochemical; settings: mean ± S.D.; read-out: IC50 against human pancreas α-amylase (converted)
T5 construct: α-amylase from human pancreas; purchased Lee Biosolutions, Inc. Cat. No. 120-15; host or cells: human pancreas (tissue-derived)
T5 sequence (P04746 16-511): T1 sequence (P04746 16-511)
From the text: as §3

[6] = system: proteases (pepsin, trypsin, chymotrypsin); assay: Simulated gastrointestinal digestion of artificial substrate mixture, protease activity (7-amino-4-methylcoumarin marker, HPLC-DAD); type: biochemical, porcine, bovine; settings: doses of 1–1000 μg/mL
From the text: as §1, with “([…])” for “(in doses of 100 μg/mL and 1000 μg/mL)”
as §2

[7] = target: T6, porcine pancreatic lipase (Sus scrofa, UniProt P00591); assay: Simulated gastrointestinal digestion of artificial substrate mixture, lipase activity (4-methylumbelliferone marker, HPLC-DAD); type: biochemical
T6 construct: lipase from porcine pancreas; purchased Sigma-Aldrich L3126 (lipase); C3028 (colipase); host or cells: porcine pancreas (tissue-derived)
T6 sequence (P00591 1-450): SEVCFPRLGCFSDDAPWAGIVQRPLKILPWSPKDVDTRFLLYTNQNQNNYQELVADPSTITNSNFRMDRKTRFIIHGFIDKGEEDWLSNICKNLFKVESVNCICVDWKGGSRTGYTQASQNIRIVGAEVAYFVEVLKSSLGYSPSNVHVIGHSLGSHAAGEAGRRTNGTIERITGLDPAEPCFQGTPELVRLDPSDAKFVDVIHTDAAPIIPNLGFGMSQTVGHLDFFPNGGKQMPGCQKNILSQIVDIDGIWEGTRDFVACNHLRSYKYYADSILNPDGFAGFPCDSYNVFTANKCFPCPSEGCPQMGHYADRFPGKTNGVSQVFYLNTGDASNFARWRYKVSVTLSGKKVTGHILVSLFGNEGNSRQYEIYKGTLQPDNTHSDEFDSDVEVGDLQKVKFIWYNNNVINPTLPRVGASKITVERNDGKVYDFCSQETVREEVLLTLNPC
T6 sequence (P02703 23-112 partner): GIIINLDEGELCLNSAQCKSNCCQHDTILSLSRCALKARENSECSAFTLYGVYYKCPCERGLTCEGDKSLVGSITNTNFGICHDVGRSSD
From the text: To study the inhibitory potential of R. acicularis extracts on the digestive enzymes, we used the standardized static, simulated gastrointestinal digestion method of Minekus et al., based on physiologically relevant conditions of digestion [77]. In brief, the artificial substrate mixture, including ethylidene-p-nitrophenyl-α-D-maltoheptaoside (as a carbohydrate model), Nα-benzoyl-L-arginine-7-amino-4-methylcoumarin hydrochloride (as a protein model) and 4-methylumbelliferyl heptanoate (as a lipid model), was digested with extracts of R. acicularis leaves, flowers, roots and fruits (in doses of 100 μg/mL and 1000 μg/mL) by gastric and intestinal enzymatic and electrolyte mixtures (or juices). […] In a final step, concentrations of specific markers, such as p-nitrophenol, 7-amino-4-methylcoumarin and 4-methylumbelliferone, released from an artificial nutrient mixture, were analyzed by an HPLC-DAD assay. […]
For simulation, the known standardized static gastrointestinal digestion method of Minekus et al. [77] was used with no variation. […] The supernatant was analyzed using an HPLC-DAD assay (Section 3.7) to quantify the level of markers as p-nitrophenol, 7-amino-4-methylcoumarin and 4-methylumbelliferone formed from ethylidene-p-nitrophenyl-α-D-maltoheptaoside, Nα-benzoyl-L-arginine- 7-amino-4-methylcoumarin hydrochloride and 4-methylumbelliferyl heptanoate, respectively. […]

- Pancreatic-α-amylase-inhibiting activity of HPLC zone (in words) [1]: medium activity
Structure (SMILES): O=C(OC[C@H]1O[C@@H](OC(=O)c2cc(O)c(O)c(O)c2)[C@H](OC(=O)c2cc(O)c(O)c(O)c2)[C@@H](OC(=O)c2cc(O)c(O)c(O)c2)[C@@H]1O)c1cc(O)c(O)c(O)c1 [1,2,3,6-tetra-O-galloyl glucose, 1,2,3,6-Tetra-O-galloyl glucose]

- Amylase activity (percentage of initial) after simulated gastrointestinal digestion [2]: 55%
Structure (SMILES): C[C@H]1O[C@H](O[C@H]2[C@H](O)[C@@H](O)[C@@H](O[C@H]3[C@H](O)[C@@H](O)C(O)O[C@@H]3CO)O[C@@H]2CO)[C@H](O)[C@@H](O)[C@@H]1N[C@H]1C=C(CO)[C@@H](O)[C@H](O)[C@H]1O (some centres unmarked) [Acarbose]

Structure (SMILES): O=C(O[C@@H]1O[C@@H]2COC(=O)c3cc(Oc4c(C(=O)O[C@@H]5O[C@@H]6COC(=O)c7cc(O)c(O)c(O)c7-c7c(cc(O)c(O)c7O)C(=O)O[C@H]6[C@H](OC(=O)c6cc(O)c(O)c(O)c6)[C@H]5OC(=O)c5cc(O)c(O)c(O)c5)cc(O)c(O)c4O)c(O)c(O)c3-c3c(cc(O)c(O)c3O)C(=O)O[C@H]2[C@H](OC(=O)c2cc(O)c(O)c(O)c2)[C@H]1OC(=O)c1cc(O)c(O)c(O)c1)c1cc(O)c(O)c(O)c1 [Rugosin D]
- Starch protected (starch content as percentage of initial) after reaction with pancreatic amylase [1]: 82–95%
- IC50 [3]: 17.1 µM
- IC50 [4]: 36 µM
- IC50 [5]: 16.4 µM
- Inhibition of protease activity in simulated digestion (in words) [6]: not substantially inhibited
- Inhibition of lipase activity in simulated digestion (in words) ([7]; doses of 1–1000 μg/mL): not substantially inhibited

Structure (SMILES): O=C(O)[C@H]1O[C@@H](Oc2c(-c3ccc(O)c(O)c3)oc3cc(O)cc(O)c3c2=O)[C@H](O)[C@@H](O)[C@@H]1O [miquelianin, Quercetin-3-O-glucuronide]
- Pancreatic-α-amylase-inhibiting activity of HPLC zone (in words) [1]: medium activity

Structure (SMILES): CCCCCCCCCCC[C@@H](C[C@@H]1OC(=O)[C@H]1CCCCCC)OC(=O)[C@H](CC(C)C)NC=O [orlistat, reference compound]
- Lipase activity (percentage of initial) after simulated gastrointestinal digestion ([7]; 1000 μg/mL, control = 100% of enzyme activity): 38%

- Pancreatic-α-amylase-inhibiting activity of HPLC zone (in words) [1]: medium activity
Structure (SMILES): O=C(OC1O[C@@H]2COC(=O)c3cc(O)c(O)c(O)c3-c3c(cc(O)c(O)c3O)C(=O)O[C@H]2[C@H](OC(=O)c2cc(O)c(O)c(O)c2)[C@H]1OC(=O)c1cc(O)c(O)c(O)c1)c1cc(O)c(O)c(O)c1 (some centres unmarked) [tellimagrandin II, Tellimagrandin II1]
